Results on four compounds are retold here after article PMC10004634 (PLOS ONE, 2023).

Among the targets are KIT(D816H) (Homo sapiens, UniProt P10721, D816H); PHKG1 (Homo sapiens, UniProt Q16816); FLT4 (Homo sapiens, UniProt P35916); EPHA2 (Homo sapiens, UniProt P29317); KIT(V559D) (Homo sapiens, UniProt P10721, V559D).
Holding throughout (assay): biochemical
What all share (set-up): KINOMEscan scanMAX competition binding, DNA-tagged kinases, qPCR read-out, percent control at 300 nM
(In general: Quantitative PCR measures a nucleic acid by following its amplification.)

For a further assay, the target named is T1, TRKA (Homo sapiens, UniProt P04629).
T1 construct: gene NTRK1
T1 sequence (P04629 whole entry): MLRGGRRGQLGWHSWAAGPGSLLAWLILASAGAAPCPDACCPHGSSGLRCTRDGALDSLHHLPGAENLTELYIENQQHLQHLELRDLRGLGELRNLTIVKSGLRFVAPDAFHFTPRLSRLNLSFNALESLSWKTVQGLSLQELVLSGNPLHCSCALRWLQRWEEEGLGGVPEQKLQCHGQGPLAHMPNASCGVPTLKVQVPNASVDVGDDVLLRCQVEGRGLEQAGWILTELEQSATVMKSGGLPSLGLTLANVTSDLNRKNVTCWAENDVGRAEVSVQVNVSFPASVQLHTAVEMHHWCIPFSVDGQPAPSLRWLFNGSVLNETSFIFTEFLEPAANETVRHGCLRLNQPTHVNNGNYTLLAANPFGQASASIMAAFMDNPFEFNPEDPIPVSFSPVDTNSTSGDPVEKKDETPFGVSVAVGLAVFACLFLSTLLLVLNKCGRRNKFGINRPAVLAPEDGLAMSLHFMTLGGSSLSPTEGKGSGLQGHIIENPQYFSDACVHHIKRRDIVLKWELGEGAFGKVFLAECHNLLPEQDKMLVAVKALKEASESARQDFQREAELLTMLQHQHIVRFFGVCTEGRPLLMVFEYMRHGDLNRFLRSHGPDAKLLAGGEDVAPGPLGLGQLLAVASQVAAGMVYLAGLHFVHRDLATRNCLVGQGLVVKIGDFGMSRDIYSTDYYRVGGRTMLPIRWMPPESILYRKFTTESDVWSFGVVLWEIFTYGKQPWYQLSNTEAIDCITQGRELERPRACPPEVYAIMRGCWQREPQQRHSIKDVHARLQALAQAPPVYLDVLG

The next assay addresses T2, YANK2 (Homo sapiens, UniProt Q9NY57).
T2 construct: gene STK32B

Another assay has as its target T3, ULK1 (Homo sapiens, UniProt O75385).
T3 sequence (O75385 1-1050): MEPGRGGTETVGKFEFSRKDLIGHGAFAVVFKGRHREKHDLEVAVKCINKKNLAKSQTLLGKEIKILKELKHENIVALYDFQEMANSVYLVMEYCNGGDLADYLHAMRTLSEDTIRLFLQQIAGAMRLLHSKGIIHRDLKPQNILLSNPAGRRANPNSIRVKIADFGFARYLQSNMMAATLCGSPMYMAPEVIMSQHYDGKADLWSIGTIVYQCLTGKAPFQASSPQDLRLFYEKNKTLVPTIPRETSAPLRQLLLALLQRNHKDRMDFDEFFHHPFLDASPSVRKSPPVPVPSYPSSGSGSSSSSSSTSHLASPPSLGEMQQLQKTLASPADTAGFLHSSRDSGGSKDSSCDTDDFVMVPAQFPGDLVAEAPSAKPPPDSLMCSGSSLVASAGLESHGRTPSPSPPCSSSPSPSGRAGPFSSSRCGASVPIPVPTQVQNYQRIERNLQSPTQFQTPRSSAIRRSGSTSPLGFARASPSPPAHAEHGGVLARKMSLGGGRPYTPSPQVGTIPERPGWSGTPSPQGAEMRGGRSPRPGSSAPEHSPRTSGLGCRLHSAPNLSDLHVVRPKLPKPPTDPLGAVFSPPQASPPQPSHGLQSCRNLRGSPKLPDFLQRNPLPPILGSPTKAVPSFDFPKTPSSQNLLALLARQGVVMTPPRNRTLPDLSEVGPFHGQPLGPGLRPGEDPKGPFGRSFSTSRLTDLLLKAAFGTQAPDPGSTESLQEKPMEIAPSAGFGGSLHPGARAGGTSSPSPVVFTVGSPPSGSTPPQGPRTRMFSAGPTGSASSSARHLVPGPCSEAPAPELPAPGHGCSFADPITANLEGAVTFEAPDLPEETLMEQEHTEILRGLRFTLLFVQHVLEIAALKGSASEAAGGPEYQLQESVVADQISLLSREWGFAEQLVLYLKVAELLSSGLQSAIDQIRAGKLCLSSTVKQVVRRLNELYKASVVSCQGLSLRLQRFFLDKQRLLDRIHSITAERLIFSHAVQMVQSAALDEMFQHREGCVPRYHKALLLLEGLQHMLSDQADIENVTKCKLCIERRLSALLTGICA

The target in the next assay is T4, TXK (Homo sapiens, UniProt P42681).
T4 sequence (P42681 1-527): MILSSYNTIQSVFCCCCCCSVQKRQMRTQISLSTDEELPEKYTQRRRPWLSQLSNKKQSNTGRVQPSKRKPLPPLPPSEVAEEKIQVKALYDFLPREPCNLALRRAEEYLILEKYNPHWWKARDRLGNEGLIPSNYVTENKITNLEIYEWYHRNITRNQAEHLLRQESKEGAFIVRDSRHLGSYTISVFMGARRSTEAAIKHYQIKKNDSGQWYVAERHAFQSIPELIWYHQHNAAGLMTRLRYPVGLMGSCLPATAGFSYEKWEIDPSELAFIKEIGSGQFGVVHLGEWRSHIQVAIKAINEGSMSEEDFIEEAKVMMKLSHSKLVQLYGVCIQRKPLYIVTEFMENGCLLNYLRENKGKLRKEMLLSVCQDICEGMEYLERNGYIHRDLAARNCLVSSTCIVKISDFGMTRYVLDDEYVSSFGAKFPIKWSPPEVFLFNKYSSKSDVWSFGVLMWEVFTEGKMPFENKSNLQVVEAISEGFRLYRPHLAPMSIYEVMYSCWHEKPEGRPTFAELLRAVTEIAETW

In the next assay the target is T5, BRK (Homo sapiens, UniProt Q13882).
T5 construct: gene PTK6
T5 sequence (Q13882 whole entry): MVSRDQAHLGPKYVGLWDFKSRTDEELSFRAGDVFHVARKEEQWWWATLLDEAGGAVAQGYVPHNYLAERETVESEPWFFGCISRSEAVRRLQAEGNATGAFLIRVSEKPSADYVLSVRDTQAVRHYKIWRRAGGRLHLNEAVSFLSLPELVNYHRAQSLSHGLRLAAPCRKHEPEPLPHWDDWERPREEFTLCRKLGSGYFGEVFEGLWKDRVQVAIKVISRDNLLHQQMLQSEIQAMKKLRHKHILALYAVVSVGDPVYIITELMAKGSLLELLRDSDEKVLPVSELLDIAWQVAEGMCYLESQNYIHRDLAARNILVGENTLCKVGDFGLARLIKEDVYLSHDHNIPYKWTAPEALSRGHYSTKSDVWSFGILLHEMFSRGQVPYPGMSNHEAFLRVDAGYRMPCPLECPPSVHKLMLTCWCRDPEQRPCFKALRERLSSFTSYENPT

[1] abbreviates: read-out: Percent control / Tirabrutinib.
The mark [2] stands for this setting: read-out: Percent control / Acalabrutinib.
Setting [3] is: read-out: Percent control / Ibrutinib.
[4] abbreviates: read-out: Percent control / Zanubrutinib.

Read-outs that look alike come from different tables or passages of the source.

EPHA2, sequence (P29317 whole entry): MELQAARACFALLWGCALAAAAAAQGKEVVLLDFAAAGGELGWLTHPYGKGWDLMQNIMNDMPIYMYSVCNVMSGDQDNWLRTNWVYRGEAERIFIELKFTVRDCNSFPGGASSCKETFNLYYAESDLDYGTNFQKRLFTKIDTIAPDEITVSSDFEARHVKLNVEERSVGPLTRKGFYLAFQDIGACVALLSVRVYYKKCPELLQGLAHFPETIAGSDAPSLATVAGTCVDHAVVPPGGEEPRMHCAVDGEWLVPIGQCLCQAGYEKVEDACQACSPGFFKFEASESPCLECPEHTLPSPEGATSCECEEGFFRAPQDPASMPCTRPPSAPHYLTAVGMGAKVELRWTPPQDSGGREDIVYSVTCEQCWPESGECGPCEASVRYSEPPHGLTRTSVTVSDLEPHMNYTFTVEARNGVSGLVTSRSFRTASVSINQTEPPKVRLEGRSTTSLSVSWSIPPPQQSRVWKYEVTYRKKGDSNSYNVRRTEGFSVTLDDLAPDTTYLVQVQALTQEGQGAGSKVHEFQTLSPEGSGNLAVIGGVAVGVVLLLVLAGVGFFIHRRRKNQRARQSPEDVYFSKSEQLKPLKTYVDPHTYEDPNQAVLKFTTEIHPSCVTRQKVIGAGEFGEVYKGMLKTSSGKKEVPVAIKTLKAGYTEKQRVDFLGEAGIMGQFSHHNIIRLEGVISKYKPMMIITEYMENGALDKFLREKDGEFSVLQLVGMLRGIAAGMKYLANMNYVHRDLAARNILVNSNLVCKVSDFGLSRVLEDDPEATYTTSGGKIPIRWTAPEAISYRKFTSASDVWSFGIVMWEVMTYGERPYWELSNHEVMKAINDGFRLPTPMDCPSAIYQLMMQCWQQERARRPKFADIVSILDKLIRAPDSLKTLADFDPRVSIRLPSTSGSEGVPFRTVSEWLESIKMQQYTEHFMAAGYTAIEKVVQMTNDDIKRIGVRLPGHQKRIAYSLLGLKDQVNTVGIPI
KIT(V559D), sequence (P10721 whole entry V559D): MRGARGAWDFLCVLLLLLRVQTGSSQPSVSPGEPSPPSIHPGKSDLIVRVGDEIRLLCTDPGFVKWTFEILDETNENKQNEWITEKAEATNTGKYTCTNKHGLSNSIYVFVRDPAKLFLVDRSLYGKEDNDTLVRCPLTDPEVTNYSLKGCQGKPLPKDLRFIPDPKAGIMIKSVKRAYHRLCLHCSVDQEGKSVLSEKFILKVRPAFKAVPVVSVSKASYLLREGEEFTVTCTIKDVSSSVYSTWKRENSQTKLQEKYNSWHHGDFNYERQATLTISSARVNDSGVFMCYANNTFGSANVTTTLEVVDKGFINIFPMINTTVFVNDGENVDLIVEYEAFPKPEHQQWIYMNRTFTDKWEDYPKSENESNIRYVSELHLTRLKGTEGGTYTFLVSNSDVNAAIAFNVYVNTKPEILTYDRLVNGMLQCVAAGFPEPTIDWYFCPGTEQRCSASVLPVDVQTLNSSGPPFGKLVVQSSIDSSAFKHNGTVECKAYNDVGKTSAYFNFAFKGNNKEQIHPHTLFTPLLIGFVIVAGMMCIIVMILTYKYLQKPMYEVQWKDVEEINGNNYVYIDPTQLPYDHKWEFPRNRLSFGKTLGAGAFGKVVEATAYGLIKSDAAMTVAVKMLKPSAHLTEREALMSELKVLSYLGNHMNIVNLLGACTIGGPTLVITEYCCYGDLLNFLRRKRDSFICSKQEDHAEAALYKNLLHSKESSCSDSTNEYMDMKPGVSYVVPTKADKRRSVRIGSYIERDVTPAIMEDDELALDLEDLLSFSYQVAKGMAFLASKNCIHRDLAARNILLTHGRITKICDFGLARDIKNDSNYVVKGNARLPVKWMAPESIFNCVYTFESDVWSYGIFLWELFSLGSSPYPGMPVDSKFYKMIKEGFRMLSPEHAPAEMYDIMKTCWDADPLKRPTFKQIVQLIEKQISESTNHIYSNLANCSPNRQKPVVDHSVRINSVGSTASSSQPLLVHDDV
KIT(D816H), sequence (P10721 whole entry D816H): as the sequence (P10721 whole entry V559D) above, with D559V, D816H counted along it
T2 sequence (Q9NY57 whole entry): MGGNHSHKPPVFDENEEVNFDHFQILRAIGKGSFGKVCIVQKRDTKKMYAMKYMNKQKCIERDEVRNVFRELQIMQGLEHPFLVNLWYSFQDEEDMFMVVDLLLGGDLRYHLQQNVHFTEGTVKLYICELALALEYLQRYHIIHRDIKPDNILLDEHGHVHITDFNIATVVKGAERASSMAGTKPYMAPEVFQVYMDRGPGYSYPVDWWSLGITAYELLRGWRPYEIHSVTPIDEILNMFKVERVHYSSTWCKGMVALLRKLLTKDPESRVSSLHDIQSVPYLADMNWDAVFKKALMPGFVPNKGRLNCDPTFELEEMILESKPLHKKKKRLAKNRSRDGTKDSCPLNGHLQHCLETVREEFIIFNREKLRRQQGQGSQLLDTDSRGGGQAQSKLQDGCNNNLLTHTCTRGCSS
FLT4, sequence (P35916 whole entry): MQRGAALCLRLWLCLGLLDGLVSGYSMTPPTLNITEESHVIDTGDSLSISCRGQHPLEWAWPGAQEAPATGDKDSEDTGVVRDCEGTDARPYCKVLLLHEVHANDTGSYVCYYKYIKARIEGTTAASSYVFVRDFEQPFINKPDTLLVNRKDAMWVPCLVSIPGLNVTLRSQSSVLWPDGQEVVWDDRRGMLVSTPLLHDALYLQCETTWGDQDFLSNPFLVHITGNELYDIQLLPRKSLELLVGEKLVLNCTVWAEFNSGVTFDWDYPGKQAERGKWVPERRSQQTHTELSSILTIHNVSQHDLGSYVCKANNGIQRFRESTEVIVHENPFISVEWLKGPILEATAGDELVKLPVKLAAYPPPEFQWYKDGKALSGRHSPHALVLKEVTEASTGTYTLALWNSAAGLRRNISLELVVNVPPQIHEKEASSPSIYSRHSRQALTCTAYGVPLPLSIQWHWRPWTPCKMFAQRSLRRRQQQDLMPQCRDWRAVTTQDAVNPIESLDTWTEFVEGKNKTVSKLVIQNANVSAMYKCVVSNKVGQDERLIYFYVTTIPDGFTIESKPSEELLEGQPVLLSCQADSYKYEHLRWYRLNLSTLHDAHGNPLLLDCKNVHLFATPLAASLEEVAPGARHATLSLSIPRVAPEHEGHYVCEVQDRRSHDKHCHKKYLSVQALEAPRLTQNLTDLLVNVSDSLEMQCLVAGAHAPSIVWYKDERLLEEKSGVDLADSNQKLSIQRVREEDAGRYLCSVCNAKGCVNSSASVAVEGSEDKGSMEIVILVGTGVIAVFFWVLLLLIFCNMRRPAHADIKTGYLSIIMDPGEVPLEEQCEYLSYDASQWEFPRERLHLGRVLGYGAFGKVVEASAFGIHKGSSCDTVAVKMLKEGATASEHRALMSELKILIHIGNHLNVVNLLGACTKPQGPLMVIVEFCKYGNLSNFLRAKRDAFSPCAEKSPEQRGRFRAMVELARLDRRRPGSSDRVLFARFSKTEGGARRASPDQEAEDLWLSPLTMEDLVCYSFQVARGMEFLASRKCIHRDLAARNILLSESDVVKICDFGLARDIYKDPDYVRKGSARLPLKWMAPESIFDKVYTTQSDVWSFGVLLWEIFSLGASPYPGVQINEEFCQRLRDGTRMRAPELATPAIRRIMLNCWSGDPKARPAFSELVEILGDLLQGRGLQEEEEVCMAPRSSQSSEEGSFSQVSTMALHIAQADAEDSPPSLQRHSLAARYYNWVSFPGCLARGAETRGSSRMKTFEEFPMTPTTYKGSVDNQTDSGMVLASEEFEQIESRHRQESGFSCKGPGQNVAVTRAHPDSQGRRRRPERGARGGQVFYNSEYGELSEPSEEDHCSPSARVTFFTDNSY

Turning to `CC#CC(=O)N1CC[C@@H](n2c(=O)n(-c3ccc(Oc4ccccc4)cc3)c3c(N)ncnc32)C1` [Tirabrutinib], the remaining binding at 0.3 µM at KIT(D816H) (setting [1]) came to 84%; at TRKA (setting [1]), 83%; at PHKG1 (setting [1]), 83%; on YANK2 (setting [1]), 87%; at FLT4 (setting [1]), 99%; at ULK1 (setting [1]) it was 74%. For the same compound, the remaining binding at 0.3 µM at EPHA2 (setting [1]) turned out to be 93%; at TXK (setting [1]), 38%.

`CC#CC(=O)N1CCC[C@H]1c1nc(-c2ccc(C(=O)Nc3ccccn3)cc2)c2c(N)nccn12` [Acalabrutinib]: the remaining binding at 0.3 µM worked out at 82% at KIT(D816H) (setting [2]); 87% at BRK (setting [2]); 88% at TRKA (setting [2]); 92% at PHKG1 (setting [2]); 89% at YANK2 (setting [2]); 96% at FLT4 (setting [2]). The remaining binding at 0.3 µM is 84% at KIT(V559D) (setting [2]), 95% on ULK1 (setting [2]), 94% at EPHA2 (setting [2]) and 43% at TXK (setting [2]).

On to `C=CC(=O)N1CCC[C@@H](n2nc(-c3ccc(Oc4ccccc4)cc3)c3c(N)ncnc32)C1` [Ibrutinib], for which the remaining binding at 0.3 µM was found to be 3.4% on BRK (setting [3]); 82% on TRKA (setting [3]); 76% on YANK2 (setting [3]); 57% at FLT4 (setting [3]); 55% on KIT(V559D) (setting [3]); 85% on ULK1 (setting [3]). Moreover, the remaining binding at 0.3 µM at TXK (setting [3]) is 0.4%.

In the case of `C=CC(=O)N1CCC([C@@H]2CCNc3c(C(N)=O)c(-c4ccc(Oc5ccccc5)cc4)nn32)CC1` [Zanubrutinib], the remaining binding at 0.3 µM came to 96% on KIT(D816H) (setting [4]); 35% on BRK (setting [4]); 99% on TRKA (setting [4]); 67% at PHKG1 (setting [4]); 96% on YANK2 (setting [4]); 100% on FLT4 (setting [4]). For the same compound, the remaining binding at 0.3 µM is 87% on KIT(V559D) (setting [4]), 100% on ULK1 (setting [4]), 67% at EPHA2 (setting [4]) and 14% on TXK (setting [4]).
